Measured values from patent publication US20150231134A1, “Combination Therapy using Belinostat and Trabectedin” (Onxeo DK, Branch of Onxeo S.A., France, priority 2012, published 2015).
Where two headings read alike, the source gives them in different places.

How the values were obtained:
[1] = tested on: Ovarian Cancer Cells (A2780); assay: Clonogenic assay (continuous co-incubation), ovarian cancer cells A2780; type: cell-based
Method: (§1) The effects of the combination of belinostat and trabectedin were studied in clonogenic assays. The clonogenic assay assesses anti-clonogenic activity of tumour cells. The “target” in clonogenic assay is all biochemical and molecular elements or alterations characteristic of tumour cells rather than specific single targets.
(§2) Cells were grown for at least 1 week after thawing in standard media to obtain a sub-confluent culture. The 3.3% agar was boiled for at least 60 minutes in a water bath on an electrical heating plate (30 mL PBS+990 mg Bacto agar). The 90 mL growth medium (RPMI-1640+10% FCS) was heated in a water bath at 37° C. Cells were centrifuged in 50 mL centrifuge tubes at 1200 rpm for 5 minutes at room temperature.
(§3) Drug (belinostat or trabectedin) was dissolved and diluted with growth medium or DMSO to a concentration of […] the final concentration.
(§4) Cells were suspended in 7 mL growth medium using a 1 mL syringe and an 18 gauge needle by pumping the solution up and down 15 times. Cells were stained with Nigrosin (0.3 mL cells+0.3 mL 0.1% Nigrosin in PBS), and counted after 8 minutes using a Fuchs-Rosenthal counting chamber.
(§5) Then, 10 mL agar and 90 mL growth medium was mixed (0.33%) and heated in a water bath at 37° C. 0.35 mL cell suspension was transferred to 10 mL conical centrifuge tubes using a dispenser. 35 μL drug (belinostat or trabectedin) was added. 3.15 mL agar/medium was added to each tube (maximum 8 tubes at the time).
(§6) For each belinostat combination tested series of 7 titrations corresponding to approximately 30, 40, 50, 60, 70, 80, 90% inhibition was tested as mono-therapy and in combination.
(§7) The Combination Index (CI) provides a measure of the interaction: A CI value of less than 1 indicates synergy, a CI value of 1 indicates an additive effect, and a CI value of greater than 1 indicates antagonism.

[2] = tested on: Sarcoma Cells (MesSa); assay: Clonogenic assay (continuous co-incubation), sarcoma cells MesSa; type: cell-based, human
Method: as §1, §2, §3, §4, §5, §6, §7

[3] = tested on: Osteocarcinoma Cells (Saos-2); assay: Clonogenic assay (continuous co-incubation), osteocarcinoma cells Saos-2; type: cell-based
Method: as §1, §2, §3, §4, §5, §6, §7

[4] = tested on: MesSa human sarcoma xenograft; type: in vivo
Method: The xenograft model used the MesSa cell line (ATCC: CRL-1976 human sarcoma cells) (in vitro cell passage number 67 from frozen stock (number 65) on day 5). Tumour cells (1×10^7) (trypsinated) (100 μL in 100 μL matrigel) were injected subcutaneously (s.c.) into the right flank of each mouse, with one node per mouse. The time from cell dilution to the end of injection was 24 minutes. Each mouse was anaesthetised with Hypnorm/Dormicum subcutaneously (s.c.) or isofluran (by inhalation) when the tumour cells were injected.
Four groups, each of 12 mice, were treated with vehicle, belinostat only, trabectedin only, or both belinostat and trabectedin, for three weeks, as summarised in the following table. On days that belinostat was administered, it was administered twice, with a 3 hour interval. On days that both belinostat and trabectedin were administered, the trabectedin was administered between the two belinostat administrations.
Mice were enrolled in treatment groups following confirmation of xenograft take. Both tumour diameter and body weight were measured on days: 0, 3, 7, 10, 14, 17, and 21. Animals were sacrificed (by cervical dislocation) on day 21. Tumour weight was measured on day 21 (following sacrifice).
“T/C%” denotes tumour weight following treatment as a percent of control, using Mann-Whitney statistical analysis. The results (median tumour volume) are also illustrated in FIG. 4.
“T/C%” denotes tumour weight following treatment as a percent of control, using Mann-Whitney statistical analysis. The results (median tumour weight) are also illustrated in FIG. 5.

[5] = physiological pH; cited from earlier work
[6] = tested on: soft-tissue sarcoma; conditions: patients with soft-tissue sarcoma, pivotal clinical trial; cited from earlier work
[7] = day 0, belinostat 40 mg/kg i.p. twice daily, days 0-4, 7-11, 14-18
[8] = day 4, belinostat 40 mg/kg i.p. twice daily, days 0-4, 7-11, 14-18
[9] = day 7, belinostat 40 mg/kg i.p. twice daily, days 0-4, 7-11, 14-18
[10] = day 10, belinostat 40 mg/kg i.p. twice daily, days 0-4, 7-11, 14-18
[11] = day 14, belinostat 40 mg/kg i.p. twice daily, days 0-4, 7-11, 14-18
[12] = day 17, belinostat 40 mg/kg i.p. twice daily, days 0-4, 7-11, 14-18
[13] = day 0, trabectedin 0.1 mg/kg i.v. once, days 0, 3, 7, 10
[14] = day 4, trabectedin 0.1 mg/kg i.v. once, days 0, 3, 7, 10
[15] = day 7, trabectedin 0.1 mg/kg i.v. once, days 0, 3, 7, 10
[16] = day 10, trabectedin 0.1 mg/kg i.v. once, days 0, 3, 7, 10
[17] = day 14, trabectedin 0.1 mg/kg i.v. once, days 0, 3, 7, 10
[18] = day 17, trabectedin 0.1 mg/kg i.v. once, days 0, 3, 7, 10

## O=C(/C=C/c1cccc(S(=O)(=O)Nc2ccccc2)c1)NO [Belinostat, (E)-N-hydroxy-3-(3-phenylsulfamoyl-phenyl)-acrylamide]
[1]; belinostat 0.04 μM
  Belinostat Alone (% survival): 97.74%
[1]; belinostat 0.36 μM
  Belinostat Alone (% survival): 82.64%
[1]; belinostat 0.47 μM
  Belinostat Alone (% survival): 65.30%
[1]; belinostat 0.56 μM
  Belinostat Alone (% survival): 31.60%
[1]; belinostat 0.63 μM
  Belinostat Alone (% survival): 15.82%
[1]; belinostat 0.68 μM
  Belinostat Alone (% survival): 7.19%
[1]; belinostat 0.73 μM
  Belinostat Alone (% survival): 2.42%
[2]; belinostat 0.27 μM
  Belinostat Alone (% survival): 88.48%
[2]; belinostat 0.37 μM
  Belinostat Alone (% survival): 68.82%
[2]; belinostat 0.48 μM
  Belinostat Alone (% survival): 57.06%
[2]; belinostat 0.57 μM
  Belinostat Alone (% survival): 42.92%
[2]; belinostat 0.66 μM
  Belinostat Alone (% survival): 37.33%
[2]; belinostat 0.80 μM
  Belinostat Alone (% survival): 17.90%
[2]; belinostat 1.0 μM
  Belinostat Alone (% survival): 2.75%
[3]; belinostat 0.065 μM
  Belinostat Alone (% survival): 86.96%
[3]; belinostat 0.10 μM
  Belinostat Alone (% survival): 66.47%
[3]; belinostat 0.115 μM
  Belinostat Alone (% survival): 69.29%
[3]; belinostat 0.13 μM
  Belinostat Alone (% survival): 74.52%
[3]; belinostat 0.145 μM
  Belinostat Alone (% survival): 45.50%
[3]; belinostat 0.19 μM
  Belinostat Alone (% survival): 38.34%
[3]; belinostat 0.225 μM
  Belinostat Alone (% survival): 30.59%
[4]; belinostat 40 mg/kg, twice daily, i.p., 5 days per week for 3 weeks
  tumour growth delay (in words): some but not significant tumour growth delay
[4]; [7]
  Median Tumour Volume, Belinostat Only: 65 mm^3
  T/C % (tumour volume), Belinostat Only: 75%
[4]; [8]
  Median Tumour Volume, Belinostat Only: 71 mm^3
  T/C % (tumour volume), Belinostat Only: 81%
[4]; [9]
  Median Tumour Volume, Belinostat Only: 76 mm^3
  T/C % (tumour volume), Belinostat Only: 67%
[4]; [10]
  Median Tumour Volume, Belinostat Only: 87 mm^3
  T/C % (tumour volume), Belinostat Only: 39%
[4]; [11]
  Median Tumour Volume, Belinostat Only: 144 mm^3
  T/C % (tumour volume), Belinostat Only: 59%
[4]; [12]
  Median Tumour Volume, Belinostat Only: 295 mm^3
  T/C % (tumour volume), Belinostat Only: 66%
[4]; day 21, belinostat 40 mg/kg i.p. twice daily, days 0-4, 7-11, 14-18
  Median Tumour Volume, Belinostat Only: 449 mm^3
[4]; day 21, belinostat 40 mg/kg i.p. twice daily, days 0-4, 7-11, 14-18, p=0.10
  T/C % (tumour volume), Belinostat Only: 67%
[4]; day 21, belinostat 40 mg/kg i.p. twice daily, days 0-4, 7-11, 14-18, p=0.180
  T/C % (tumour weight), Belinostat Alone: 77%
[4]; day 21, belinostat 40 mg/kg, twice daily, i.p., 5 days per week for 3 weeks, p=0.10
  reduction in growth (tumour volume): 33%
[4]; day 21, belinostat 40 mg/kg, twice daily, i.p., 5 days per week for 3 weeks, p=0.180
  reduction in growth (tumour weight): 23%
[5]
  solubility in water: sparingly soluble

## COc1cc2c(cc1O)CCN[C@]21CS[C@@H]2c3c(OC(C)=O)c(C)c4c(c3[C@H](COC1=O)N1[C@@H]2[C@H]2c3c(cc(C)c(OC)c3O)C[C@@H]([C@@H]1O)N2C)OCO4 (relative stereo) [Trabectedin, spiro[6,16-(epithiopropanoxymethano)-7,13-imino-12H-1,3-dioxolo[7,8]isoquino[3,2-b][3]benzazocine-20,1′(2′H)-isoquinolin]-19-one, 5-(acetyloxy)-3′,4′,6,6a,7,13,14,16-octahydro-6′,8,14-trihydroxy-7′,9-dimethoxy-4,10,23-trimethyl-, [6R-(6α,6aβ,7β,13β,14β,16α,20R*)]]
[1]; trabectedin 0.66 nM
  Trabectedin Alone (% survival): 75.33%
[1]; trabectedin 0.73 nM
  Trabectedin Alone (% survival): 62.12%
[1]; trabectedin 0.80 nM
  Trabectedin Alone (% survival): 49.62%
[1]; trabectedin 0.84 nM
  Trabectedin Alone (% survival): 44.20%
[1]; trabectedin 0.88 nM
  Trabectedin Alone (% survival): 44.06%
[1]; trabectedin 0.92 nM
  Trabectedin Alone (% survival): 36.20%
[1]; trabectedin 0.96 nM
  Trabectedin Alone (% survival): 28.69%
[2]; trabectedin 0.20 nM
  Trabectedin Alone (% survival): 86.17%
[2]; trabectedin 0.46 nM
  Trabectedin Alone (% survival): 87.51%
[2]; trabectedin 0.64 nM
  Trabectedin Alone (% survival): 81.84%
[2]; trabectedin 0.75 nM
  Trabectedin Alone (% survival): 67.10%
[2]; trabectedin 0.86 nM
  Trabectedin Alone (% survival): 42.38%
[2]; trabectedin 0.97 nM
  Trabectedin Alone (% survival): 33.98%
[2]; trabectedin 1.1 nM
  Trabectedin Alone (% survival): 26.55%
[3]; trabectedin 0.005 nM
  Trabectedin Alone (% survival): 79.99%
[3]; trabectedin 0.010 nM
  Trabectedin Alone (% survival): 77.74%
[3]; trabectedin 0.09 nM
  Trabectedin Alone (% survival): 74.94%
[3]; trabectedin 0.13 nM
  Trabectedin Alone (% survival): 69.14%
[3]; trabectedin 0.17 nM
  Trabectedin Alone (% survival): 60.61%
[3]; trabectedin 0.21 nM
  Trabectedin Alone (% survival): 65.08%
[3]; trabectedin 0.26 nM
  Trabectedin Alone (% survival): 49.99%
[4]; [13]
  Median Tumour Volume, Trabectedin Only: 87 mm^3
  T/C % (tumour volume), Trabectedin Only: 100%
[4]; [14]
  Median Tumour Volume, Trabectedin Only: 87 mm^3
  T/C % (tumour volume), Trabectedin Only: 100%
[4]; [15]
  Median Tumour Volume, Trabectedin Only: 57 mm^3
  T/C % (tumour volume), Trabectedin Only: 50%
[4]; [16]
  Median Tumour Volume, Trabectedin Only: 65 mm^3
  T/C % (tumour volume), Trabectedin Only: 29%
[4]; [17]
  Median Tumour Volume, Trabectedin Only: 76 mm^3
  T/C % (tumour volume), Trabectedin Only: 31%
[4]; [18]
  Median Tumour Volume, Trabectedin Only: 134 mm^3
  T/C % (tumour volume), Trabectedin Only: 30%
[4]; day 21, trabectedin 0.1 mg/kg i.v. once, days 0, 3, 7, 10
  Median Tumour Volume, Trabectedin Only: 167 mm^3
[4]; day 21, trabectedin 0.1 mg/kg i.v. once, days 0, 3, 7, 10, p=0.01
  T/C % (tumour volume), Trabectedin Only: 25%
[4]; day 21, trabectedin 0.1 mg/kg i.v. once, days 0, 3, 7, 10, p=0.027
  T/C % (tumour weight), Trabectedin Alone: 30%
[4]; day 21, trabectedin 0.1 mg/kg, once daily, i.v., days 0, 3, 7, 10, p=0.01
  reduction in growth (tumour volume): 75%
[4]; day 21, trabectedin 0.1 mg/kg, once daily, i.v., days 0, 3, 7, 10, p=0.027
  reduction in growth (tumour weight): 70%
[4]; trabectedin 0.1 mg/kg, once daily, i.v., days 0, 3, 7, 10 of a 3 week cycle
  tumour growth delay (in words): significant tumour growth delay
[6]
  time-to-tumour-progression (TTP): 3.9 months
